BigSolDB 2.1

C=CC(=O)N1CCC[C@@H](n2nc(-c3ccc(Oc4ccccc4)cc3)c3c(N)ncnc32)C1
solubility (mole fraction)
Details | 278.15 K | 283.15 K | 288.15 K | 293.15 K | 298.15 K | 303.15 K | 308.15 K | 313.15 K | 318.15 K | 323.15 K
in 2-butanone | 0.00549 | 0.00628 | 0.00726 | 0.00855 | 0.00988 | 0.0114 | 0.0132 | 0.0155 | 0.0181 | 0.0211
in MTBE | 0.000225 | 0.000244 | 0.000277 | 0.000305 | 0.000331 | 0.00037 | 0.000404 | 0.000454 | 0.000497 | 0.00056
in acetone | 0.00362 | 0.00417 | 0.00487 | 0.00573 | 0.00673 | 0.00794 | 0.00921 | 0.0108 | 0.0125 | 0.0144
in acetonitrile | 0.000672 | 0.000819 | 0.000962 | 0.00122 | 0.00143 | 0.00174 | 0.0021 | 0.00256 | 0.00314 | 0.00367
in ethyl acetate | 0.00312 | 0.00357 | 0.00403 | 0.00475 | 0.00548 | 0.00618 | 0.00722 | 0.0083 | 0.00952 | 0.0107
in isopropanol | 0.000409 | 0.000547 | 0.000734 | 0.000947 | 0.00123 | 0.00165 | 0.00217 | 0.00278 | 0.00363 | 0.00455
in n-butanol | 0.00127 | 0.00163 | 0.00206 | 0.00261 | 0.00331 | 0.00423 | 0.0054 | 0.00694 | 0.00894 | 0.0115
